US3954793A, “1-(2-Propynyl)-1 H-indazole compounds” (priority 1973, dated 1976)

Key:
[1] = system: IN/WHO strain house flies; experiment: topical application, percent kill after 24 hours, susceptible IN/WHO strain; format: in vivo, female); conditions: for percent kill after 24 hours, synergist alone: insecticide 0, synergist 1 μg/fly; for percent kill after 24 hours, synergist alone (GS 13005 part of Table XXXI): GS 13005 0, synergist 1 μg/fly; for percent kill after 24 hours, with GS 13005: GS 13005 0.10 + synergist 0.50 μg/fly; for percent kill after 24 hours, with Mobam: Mobam 0.20 + synergist 1 μg/fly
Method: (§1) In Table IX, and in the tables following it, the doses of topically applied insecticides and of synergists unless otherwise noted are expressed as micrograms per fly (μg/fly).
(§2) The synergistic effect of O-(2-propynyl) oximes with mobam was determined from topical application tests on susceptible, female, IN/WHO strain house flies and from tests on resistant, female, Rutgers A strain house flies. The synergist and insecticide were dissolved in ACS Grade acetone in such quantities that a 1.0 μ liter volume applied to the thorax of 3-to-5 day old CO2 -anesthetized female adult house flies contained the desired dosage. After being treated, the flies were confined, 10 to a plaster petri dish, with 3-5 dishes/treament, and held for 24-hr. observation of mortality. Reconstituted skim milk on cotton dental wicks was provided during the holding period. The percent kills after 24 hours are shown in Table X for the IN/WHO strain and Table XI for the Rutgers A strain.
(§3) The synergistic effect of benzyl 2-propynyl ethers with mobam was determined from topical application tests on IN/WHO and Rutgers A strain houseflies, following the procedure of Example 5. The percent kills after 24 hours are shown in Table XIV for the IN/WHO strain and in Table XV for the Rutgers A strain.
The effects of varying the insecticide dose and the synergist-insecticide ratio are further illustrated, with synergist compounds II-D, II-E, II-F and Mobam insecticide, in Tables XVI, XVII and XVIII. […]
The effect on IN/WHO flies of synergist compound IV-C, identified in Table IV, with mobam was determined by the topical application procedure of Example 5. […]
(§4) The synergistic effect with GS 13005 of compounds I-A, I-B, I-D, I-E, I-F, I-G and I-I was determined from topical application tests to IN/WHO strain, Rutgers A strain and polyvalent CH strain houseflies using the procedures of Example 5. The percent kills of the IN/WHO strain flies after 24 hours are shown in Table XXVIII; of the Rutgers A strain, in Table XXIX; and of the polyvalent CH strain, in Table XXX. The doses of insecticide alone to the CH strain files caused 10-40% mortality.
The synergistic effect with Diazinon and GS 13005 of various of the benzyl 2-propynyl ethers identified in Tables II and IIa was determined by topical application tests on IN/WHO strain, and Rutgers A strain and polyvalent, resistant, CH strain houseflies using the procedures of Example 5. The percent kills after 24 hours of IN/WHO strain flies are shown in Table XXXI; of Rutgers A strain flies, in Table XXXII; and of CH strain flies, in Table XXXIII. The doses of insecticide alone to the CH strain flies caused 10-40% mortality. […]
(§5) The synergistic effect on IN/WHO strain flies and Rutgers A strain flies of compound IV-C with GS 13005 and with Diazinon was determined by the topical application procedure of Example 5. The percent kills of IN/WHO strain flies after 24 hours are shown in Tables XXXVI and XXXVII; the percent kills of Rutgers A strain flies are shown in Tables XXXVIII and XXXIX.

[2] = system: Rutgers A strain house flies; experiment: topical application, percent kill after 24 hours, resistant Rutgers A strain; format: in vivo, female); conditions: for percent kill after 24 hours, with GS 13005: GS 13005 1.0 + synergist 5.0 μg/fly; for percent kill after 24 hours, with Mobam: Mobam 0.40 + synergist 2.0 μg/fly
Method: as §1, §2, §3
The synergistic effect with Diazinon of compounds I-B, I-D, I-F, I-G, I-H and I-I, identified in Tables I and Ia, was determined from topical application tests on IN/WHO strain houseflies and on Rutgers A strain houseflies by the procedure of Example 5. The percent kills after 24 hours are shown in Table XXV for the IN/WHO strain and Table XXVI for the Rutgers A strain.
as §4
The synergistic effect with Diazinon and GS 13005 of various of the benzyl 2-propynyl ethers identified in Tables II and IIa was determined by topical application tests on IN/WHO strain, and Rutgers A strain and polyvalent, resistant, CH strain houseflies using the procedures of Example 5. The percent kills after 24 hours of IN/WHO strain flies are shown in Table XXXI; of Rutgers A strain flies, in Table XXXII; and of CH strain flies, in Table XXXIII. The doses of insecticide alone to the CH strain flies caused 10-40% mortality.
as §5

[3] = system: male mice; experiment: extension of sleeping time of depressant drugs by synergists; format: in vivo, male mice (Swiss albino white); conditions: for Mean Sleeping Time, Noludar / Relative Sleeping Time, Noludar: Noludar 110 mg/kg; for Relative Sleeping Time, Noludar / Relative Sleeping Time, Secobarbital: treated/control; for Mean Sleeping Time, Secobarbital / Relative Sleeping Time, Secobarbital: Secobarbital 37 mg/kg
Method: The selectivity of the synergist compounds of this invention is illustrated by the results of sleeping-time extension tests and of acute toxicity tests on Swiss albino white male mice.
The effect of various synergist compounds on sleeping time of sodium secobarbital [Secobarbital] and of 3,3-diethyl-5-methyl-2,4-dioxypiperidine [Noludar] was determined by administering the drug, with and without synergist, to approximately 38-day old male mice weighing from 25 to 30 grams. Synergists were administered in each of two doses, 74.0 mg/kg (dilution being 2.0 mg/0.1 ml corn oil), and 110.0 mg/kg (dilution 3.0 mg/0.1 ml oil). Secobarbital was administered at a dose of 37.0 mg/kg (dilution 1.0 mg/0.1 ml water). Noludar was administered at a dose of 110.0 mg/kg (dilution 3.0 mg/0.1 ml water). The synergist was administered one hour prior to administration of the Secobarbital or Noludar. Secobarbital and Noludar sleeping times were obtained for both the control (drug only) and the treated (synergist plus drug) mice by noting the time lapse between the administration of the drug and the recovery of the righting reflex, i.e. when the animal regains conciousness and can walk up an inclined wooden tray with coordination. The relative sleeping time (R.S.) was noted. The R.S. is the extended sleeping time in the treated mice (synergist plus drug) divided by the sleeping time in the control mice (drug only). The mean sleeping time for the treated mice and the R.S. are shown on Table XXXXIV for various synergist compounds.

[4] = system: Swiss albino, white male mice; experiment: acute toxicity and synergism of acute toxicity in mice; format: in vivo; conditions: for number of mice dead, with Dimetilan: 48 hours; for number of mice dead, with GS 13005: GS 13005 71 + synergist 213 mg/kg; for number of mice dead, with Methadone: Methadone 32 + synergist 215 mg/kg; for number of mice dead, with Secobarbital: Secobarbital 90 + synergist 215 mg/kg
Method: To determine the acute toxicity of dimetilan alone, eight dosage levels of Dimetilan, ranging from 4 to 32 mg per kg were applied to eight, Swiss, albino, white, male mice per dosage level. The mice weighed approximately 23 to 27 grams and were five to six weeks old. The Dimetilan was administered intraperitoneally in 0.1 ml of corn oil one hour after the administration of the same dose of corn oil alone.
To determine the acute toxicity of the synergist alone, various synergists were administered intraperitoneally at a dose of 1000 mg/kg to each of a group of eight mice. The number of animals dead at the end of 72 hours is reported in the left hand column of Table XXXXVI.
The synergism of the acute toxicity of Dimetilan by various synergists was determined by tests on Swiss albino, white male mice aged five to six weeks and weighing 23 to 27 grams. The synergists and insecticides were dissolved in corn oil and the drugs were dissolved in distilled water. All compounds were administered intraperitoneally by injection in the lower quadrent of the abdomen. The synergist was administered in 0.1 ml of corn oil one hour prior to administration of the insecticide. Eight mice were treated, per dosage, with each synergist. The mice were watched for a minimum of 6 hours while held in a glass jar with bedding individually after intraperitoneal injection of the test solutions. Lethality was noted, the animals were weighed and transferred in cages, and food and water were supplied. Control mice were given 0.1 ml of corn oil at the time of administration of the synergist to the test mice and 0.1 ml corn oil plus Dimetilan at the time of administration of the insecticide to the test mice.
By the same procedure, the synergism of acute toxicity of GS 13005, Secobarbital and 6-dimethylamino-4,4-diphenyl-3-heptanone [Methadone] was determined.

[5] = insecticide 0, synergist 5.0 μg/fly
[6] = synergist 110 mg/kg one hour prior
[7] = synergist 74 mg/kg one hour prior
[8] = Dimetilan 8 + synergist 80 mg/kg i.p., eight mice
[9] = Dimetilan 8 + synergist 240 mg/kg i.p., eight mice

CNC(=O)Oc1ccccc1OC(C)C [Baygon, o-isopropoxyphenyl methylcarbamate, reference compound]
24 hour percent mortality, insecticide alone ([1]; insecticide 0.125 μg/fly (Table XXI)): 0%

COP(=O)(OC)O/C(C)=C/C(=O)N(C)C [Bidrin, 3-hydroxy-N,N-dimethyl-cis-crotonamide, dimethyl phosphate, reference compound]
24 hour percent mortality, Bidrin alone ([1]; Bidrin 0.063 μg/fly): 0%
24 hour percent mortality, Bidrin alone ([1]; Bidrin 0.13 μg/fly): 0%

COP(=O)(OC)OC(=CCl)c1cc(Cl)c(Cl)cc1Cl [Gardona, 2-chloro-1-(2,4,5-trichlorophenyl) vinyl dimethyl phosphate, reference compound]
24 hour percent mortality, Gardona alone ([1]; Gardona 0.031 μg/fly): 13%
24 hour percent mortality, Gardona alone ([1]; Gardona 0.063 μg/fly): 73%
24 hour percent mortality, Gardona alone ([1]; Gardona 0.125 μg/fly): 100%

C#CCON=Cc1ccc(Cl)cc1 [I-H]
percent kill after 24 hours, with Diazinon ([1]; Diazinon 0.02 + synergist 0.10 μg/fly): 47%
percent kill after 24 hours, synergist alone [1]: 0%
percent kill after 24 hours, with Diazinon ([2]; Diazinon 1.5 + synergist 7.5 μg/fly): 80%
percent kill after 24 hours, with Diazinon ([2]; Diazinon 3.0 + synergist 15 μg/fly): 100%
percent kill after 24 hours, synergist alone ([2]; insecticide 0, synergist 7.5 μg/fly): 0%
percent kill after 24 hours, synergist alone ([2]; insecticide 0, synergist 15 μg/fly): 0%

C#CCOCc1cccc(Cl)c1[N+](=O)[O-] [II-I]
percent kill after 24 hours, synergist alone (GS 13005 part of Table XXXI) [1]: 7%
percent kill after 24 hours, with GS 13005 [1]: 99%
percent kill after 24 hours, with Mobam [1]: 97%
percent kill after 24 hours, synergist alone [1]: 7%
percent kill after 24 hours, with GS 13005 [2]: 83%
percent kill after 24 hours, with Mobam [2]: 37%
percent kill after 24 hours, synergist alone [2, 5]: 3%
Mean Sleeping Time, Noludar [3, 6]: 56 min
Relative Sleeping Time, Noludar ([3]; synergist 110 mg/kg): 1.8
Mean Sleeping Time, Secobarbital [3, 7]: 31 min
Relative Sleeping Time, Secobarbital ([3]; synergist 74 mg/kg): 1.2
Mean Sleeping Time, Secobarbital [3, 6]: 32 min
Relative Sleeping Time, Secobarbital ([3]; synergist 110 mg/kg): 1.3
number of mice dead, with Dimetilan [4, 8]: 0
number of mice dead, with Dimetilan [4, 9]: 3

C#CCOCc1ccc(Cl)cc1[N+](=O)[O-] [II-J]
percent kill after 24 hours, synergist alone (GS 13005 part of Table XXXI) [1]: 13%
percent kill after 24 hours, with GS 13005 [1]: 99%
percent kill after 24 hours, with Mobam [1]: 100%
percent kill after 24 hours, synergist alone [1]: 13%
percent kill after 24 hours, with GS 13005 [2]: 100%
percent kill after 24 hours, with Mobam [2]: 70%
percent kill after 24 hours, synergist alone [2, 5]: 0%
Mean Sleeping Time, Noludar [3, 6]: 70 min
Relative Sleeping Time, Noludar ([3]; synergist 110 mg/kg): 2.2
Mean Sleeping Time, Secobarbital [3, 7]: 27 min
Relative Sleeping Time, Secobarbital ([3]; synergist 74 mg/kg): 1.0
Mean Sleeping Time, Secobarbital [3, 6]: 30 min
Relative Sleeping Time, Secobarbital ([3]; synergist 110 mg/kg): 1.4
number of mice dead, with Dimetilan [4, 8]: 0
number of mice dead, with Dimetilan [4, 9]: 4
number of mice dead, with GS 13005 [4]: 6
number of mice dead, with Methadone [4]: 3
number of mice dead, with Secobarbital [4]: 0

C#CCOCc1cccc([N+](=O)[O-])c1Cl [II-L]
percent kill after 24 hours, synergist alone (GS 13005 part of Table XXXI) [1]: 3%
percent kill after 24 hours, with GS 13005 [1]: 97%
percent kill after 24 hours, with Mobam [1]: 89%
percent kill after 24 hours, synergist alone [1]: 3%
percent kill after 24 hours, with GS 13005 [2]: 83%
percent kill after 24 hours, with Mobam [2]: 52%
percent kill after 24 hours, synergist alone [2, 5]: 0%
Mean Sleeping Time, Noludar [3, 6]: 56 min
Relative Sleeping Time, Noludar ([3]; synergist 110 mg/kg): 1.8
Mean Sleeping Time, Secobarbital [3, 7]: 31 min
Relative Sleeping Time, Secobarbital ([3]; synergist 74 mg/kg): 1.0
Mean Sleeping Time, Secobarbital [3, 6]: 42 min
Relative Sleeping Time, Secobarbital ([3]; synergist 110 mg/kg): 1.8
number of mice dead, with Dimetilan [4, 8]: 0
number of mice dead, with Dimetilan [4, 9]: 5

CCC(=O)C(CC(C)N(C)C)(c1ccccc1)c1ccccc1 (centres unmarked) [Methadone, 6-dimethylamino-4,4-diphenyl-3-heptanone, reference compound]
number of mice dead, control (Methadone alone) ([4]; Methadone (32 mg/kg) in 0.1 ml corn oil): 2

C=CCC1(C(C)CCC)C(=O)NC(=O)NC1=O (centres unmarked) [Secobarbital, sodium secobarbital, reference compound]
number of mice dead, control (Secobarbital alone) ([4]; Secobarbital (90 mg/kg) in 0.1 ml corn oil): 0

CCOCCOCCOC(C)Oc1ccc2c(c1)OCO2 (centres unmarked) [Sesoxane, reference compound]
Relative Sleeping Time, Noludar ([3]; synergist 110 mg/kg): 3.1
Relative Sleeping Time, Secobarbital ([3]; synergist 74 mg/kg): 6.1
Relative Sleeping Time, Secobarbital ([3]; synergist 110 mg/kg): 8.3
number of mice dead, with Dimetilan [4, 8]: 8
number of mice dead, with Dimetilan [4, 9]: 8
number of mice dead, with GS 13005 [4]: 0
number of mice dead, with Methadone [4]: 5
number of mice dead, with Secobarbital [4]: 6
number of mice dead, synergist alone ([4]; synergist 1000 mg/kg i.p., Dimetilan 0, 72 hours, eight mice): 1
